This is an account of results in patent US20070135383A1, “Phospholipase inhibitors, including multi-valent phospholipase inhibitors, and use thereof, including as lumen-localized phospholipase inhibitors” (priority 2005, published 2007).

Where two headings read alike, the source gives them in different places.

The test system of data set [1] is PL A2. Conditions: range given in words, art-known PL A2 inhibitors; cited from earlier work.
The nature of data set [2]: Mouse pharmacokinetic study, IV vs oral (Example 18). It is filed as in vivo, male CD-1 mice. As to conditions: PO 30 mg/kg vs IV 3 mg/kg, serum by LC/MS/MS; for bioavailability: male, CD-1, mouse. How it is done:
The plasma exposure of male CD-1 mice to indole and indole-related test articles (TAs) following intravenous (IV, 3 mg/kg) and oral (PO, 30 mg/kg) routes of administration was measured. This model was used to investigate the bioavailability of indole and indole-related TAs in mouse. Mice were selected for the study since they are an accepted species frequently used in pre-clinical evaluation of drugs intended for human use.
Male CD-1 mice (7-8 weeks old) were obtained from Charles River Laboratories (Wilmington, Mass.). Two groups (N=18 and 27) of male CD-1 mice were used for the study. Upon arrival, the animals were placed on Rodent Diet 5001 (Purina Mills, Inc., St. Louis, Mo.).
On study day (−1), indole and indole-related TAs were formulated for oral or IV dosing by mixing the formulation components with test article in the proportions described in Table 10.1. The components were mixed by vortexing and sonicating in a warming bath for 60 minutes. Animals were fasted overnight prior to start of the study. On study day (1), formulations were sonicated for an hour to make sure that no visible particles were present prior to dosing, or if present were evenly distributed in suspension. Formulated test article were stirred continuously during dosing.
All animals were weighed on study day (1) and the body weights were recorded and used for dose calculation. The animals were dosed by either PO or IV route as outlined in Table 10.2. Blood samples (0.5 mL) were collected at specified time intervals into labeled, yellow-capped Microtainer tubes. The tubes were centrifuged (8,000×g, 10 min). Serum was then pipetted off into labeled Eppendorf® tubes and frozen at −80° C. Clinical observations were recorded as needed.
Analysis of serum samples was performed by LC/MS/MS (Waters Quattro Premier, Milford, Mass.). Areas under curves (AUC) were calculated using Graphpad Prism Version 4. Bioavailability was calculated using the following equation: (Bioavailability)=(AUC0-t,oral/AUC0-t,iv)×(Doseiv/Doseoral)×100
where AUC0-t=total area under curve at the last measurable time point

For data set [3], the target named is T1, porcine group 1B PLA2 (pps PLA2) (Sus scrofa, UniProt P00592).
T1 construct: purchased
Kind of data set: Fluorimetric PPyrPM assay for group 1B PLA2 inhibition (Example 12). It is filed as biochemical. Put shortly:
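Porcine group 1B PLA2 hydrolysis of 4.2 uM PPyrPM vesicle solution (pre-mixing concentration) in 50 mM Tris-HCl pH 8.0, 50 mM KCl, 1 mM CaCl2 with BSA; inhibitors in 8-point threefold series from 15 uM. After 3 min at 37 °C, fluorescence read at ex 342/em 395 nm; duplicate IC50 by four-parameter fit.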

Data set [4] addresses T2, mouse group 1B PLA2 (mps PLA2) (Mus musculus, UniProt Q9Z0Y2).
T2 construct: made in house; host or cells: E. coli
Described as above. It is filed as biochemical.

Data set [5] has as its target T3, human group 1B PLA2 (hps PLA2) (Homo sapiens, UniProt P04054).
T3 construct: made in house; host or cells: E. coli
Described as above. It is filed as biochemical.

Setting [6] is: porcine pancreas secreted PLA2, read-out: ILYPSA IC50 pps PLA2.
The mark [7] stands for this setting: mouse pancreas secreted PLA2, read-out: ILYPSA IC50 mps PLA2.
The mark [8] stands for this setting: human pancreas secreted PLA2, read-out: ILYPSA IC50 hps PLA2.

T3 sequence (P04054 23-148): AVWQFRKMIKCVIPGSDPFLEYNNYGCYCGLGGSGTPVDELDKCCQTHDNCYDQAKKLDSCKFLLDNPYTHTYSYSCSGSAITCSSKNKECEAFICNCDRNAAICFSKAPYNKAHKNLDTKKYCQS
T1 sequence (P00592 23-146): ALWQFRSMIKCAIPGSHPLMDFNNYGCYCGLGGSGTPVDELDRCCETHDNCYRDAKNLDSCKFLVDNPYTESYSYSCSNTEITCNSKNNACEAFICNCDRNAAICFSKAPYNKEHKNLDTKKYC
T2 sequence (Q9Z0Y2 23-146): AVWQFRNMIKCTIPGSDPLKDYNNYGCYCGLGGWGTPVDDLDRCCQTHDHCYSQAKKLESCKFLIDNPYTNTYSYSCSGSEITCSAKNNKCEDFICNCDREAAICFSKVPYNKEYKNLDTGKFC

Usually IC50 stands for the point on the concentration scale where inhibition reaches its midpoint. Consider `C=CCN(CC(=O)OCC)C(=O)COc1ccc(C(=O)OCc2ccccc2)cc1`, for which the IC50 result in data set [1] was “μM range”.
In the case of `CCN(CC)CCN(Cc1ccc(-c2ccc(C(F)(F)F)cc2)cc1)C(=O)Cn1cc(Cc2ccn(C)n2)c(=O)nc1SCc1ccc(F)cc1` [GB-480848], the IC50 entry in data set [1] is on record as “nM or subnM range”.
By bioavailability is commonly meant the share of a dose that reaches the circulation, judged against a reference dose that is usually intravenous. In the case of `Cc1c(C(=O)C(N)=O)c2c(OCC(=O)O)nccc2n1Cc1ccccc1` [ILY-II-1, (3-Aminooxalyl-1-benzyl-2-methyl-1H-pyrrolo[3,2-c]pyridin-4-yloxy)-acetic acid], the bioavailability in data set [2] worked out at 11%. The figures for the IC50 in data set [3], in data set [4] and in data set [5] were 70 nM, 230 nM and 1150 nM, respectively.
In data set [2], `Cc1c(C(=O)C(N)=O)c2c(OCC(=O)NS(C)(=O)=O)nccc2n1Cc1ccccc1-c1ccccc1` [ILY-II-14, 2-(3-(2-amino-2-oxoacetyl)-1-(biphenyl-2-ylmethyl)-2-methyl-1H-pyrrolo[3,2-c]pyridin-4-yloxy)-N-(methylsulfonyl)acetamide] returned a bioavailability of 14.7%. Moreover, the IC50 came out at 40 nM in data set [3], 590 nM in data set [4] and 690 nM in data set [5].
On to `Cc1c(C(=O)C(N)=O)c2c(OCC(=O)NS(=O)(=O)CCCC(=O)O)cccc2n1Cc1ccccc1` [ILY-IV-40, 4-[2-(3-Aminooxalyl-1-benzyl-2-methyl-1H-indol-4-yloxy)-acetylsulfamoyl]-butyric acid], for which the “Bioavailability (%)” value in data set [2] stood at 0.50%.
`Cc1c(C(=O)C(N)=O)c2c(OCC(=O)O)cccc2n1CCCCCCCCCCCCSCCCCCCCCSCCCCCCCCCCCCn1c(C)c(C(=O)C(N)=O)c2c(OCC(=O)O)cccc21` [ILY-V-26, 2,2′-(1,1′-(12,12′-(Octane-1,8-diylbis(sulfanediyl))bis(dodecane-12,1-diyl))bis(3-(2-amino-2-oxoacetyl)-2-methyl-1H-indole-4,1-diyl))bis(oxy)diacetic acid] came in with a bioavailability in data set [2] of 0%. Also, the IC50 is 260 nM in data set [3] (setting [6]), 340 nM in data set [4] (setting [7]) and 240 nM in data set [5] (setting [8]).
The compound `Cc1c(C(=O)C(N)=O)c2c(OCC(=O)O)cccc2n1CCCCCCCCCCCCOc1ccc(C(C)(C)c2ccc(OCCCCCCCCCCCCn3c(C)c(C(=O)C(N)=O)c4c(OCC(=O)O)cccc43)cc2)cc1` [ILY-V-30, 2,2′-(1,1′-(12,12′-(4,4′-(propane-2,2-diyl)bis(4,1-phenylene))bis(oxy)bis(dodecane-12,1-diyl))bis(3-(2-amino-2-oxoacetyl)-2-methyl-1H-indole-4,1-diyl))bis(oxy)diacetic acid] showed a bioavailability in data set [2] (in vivo) of 0%. For the same compound, the figures for the half-inhibitory concentration (IC50) in data set [3] (setting [6]), in data set [4] (setting [7]) and in data set [5] (setting [8]) were below 20 nM, 190 nM and 430 nM, respectively.
For the compound `Cc1c(C(=O)C(N)=O)c2c(OCC(=O)O)cccc2n1CCCCCCCCCCCCOc1cc(OCCCCCCCCCCCCn2c(C)c(C(=O)C(N)=O)c3c(OCC(=O)O)cccc32)cc(OCCCCCCCCCCCCn2c(C)c(C(=O)C(N)=O)c3c(OCC(=O)O)cccc32)c1` [ILY-V-32, 2,2,′,2″-(1,1′,1″-(12,12′,12″-(benzene-1,3,5-triyltris(oxy))tris(dodecane-12,1-diyl))tris(3-(2-amino-2-oxoacetyl)-2-methyl-1H-indole-4,1-diyl))tris(oxy)triacetic acid], in data set [2], the “Bioavailability (%)” value came out at 0.00%. The IC50 in data set [3] (setting [6]) turned out to be 90 nM; in data set [4] (setting [7]), 130 nM; in data set [5] (setting [8]), 60 nM.
`Cc1c(C(=O)C(N)=O)c2c(OC(C(=O)O)C(C)C)cccc2n1CCCCCCCCCCCCOc1ccccc1OCCCCCCCCCCCCn1c(C)c(C(=O)C(N)=O)c2c(OC(C(=O)O)C(C)C)cccc21` (stereo not drawn) [ILY-V-33, 2,2′-(1,1′-(12,12′-(1,2-phenylenebis(oxy))bis(dodecane-12,1-diyl))bis(3-(2-amino-2-oxoacetyl)-2-methyl-1H-indole-4,1-diyl))bis(oxy)bis(3-methylbutanoic acid)]: the bioavailability in data set [2] (in vivo) is 8.75%. Further, the IC50 was 240 nM in data set [3] (setting [6]), 200 nM in data set [4] (setting [7]) and 220 nM in data set [5] (setting [8]).
`Cc1c(C(=O)C(N)=O)c2c(OCC(=O)O)cccc2n1CCCCCCCCCCCCOc1ccccc1-c1ccccc1OCCCCCCCCCCCCn1c(C)c(C(=O)C(N)=O)c2c(OCC(=O)O)cccc21` [ILY-V-37, [3-Aminooxalyl-1-(12-{2′-[12-(3-aminooxalyl-4-carboxymethoxy-2-methyl-indol-1-yl)-dodecyloxy]-biphenyl-2-yloxy}-dodecyl)-2-methyl-1H-indol-4-yloxy]-acetic acid]: the bioavailability in data set [2] (in vivo) came out at 0.15%. Further, the IC50 was found to be 200 nM in data set [3] (setting [6]), 230 nM in data set [4] (setting [7]) and 270 nM in data set [5] (setting [8]).
On the same counts, the results for `Cc1c(C(=O)C(N)=O)c2c(OCC(=O)O)cccc2n1CCCCCCCCCCCCOc1ccccc1OCCCCCCCCCCCC(=O)O` [ILY-V-41, 12-{2-[12-(3-Aminooxalyl-4-carboxymethoxy-2-methyl-indol-1-yl)-dodecyloxy]-phenoxy}-dodecanoic acid] are 1.62%, 1140 nM, 1600 nM and 1540 nM.
As to `Cc1c(C(=O)C(N)=O)c2c(OCC(=O)O)cccc2n1CCCCCCCCCCCCNCCCCCCCCCCCCn1c(C)c(C(=O)C(N)=O)c2c(OCC(=O)O)cccc21` [ILY-V-45, (3-Aminooxalyl-1-{12-[12-(3-aminooxalyl-4-carboxymethoxy-2-methyl-indol-1-yl)-dodecylamino]-dodecyl}-2-methyl-1H-indol-4-yloxy)-acetic acid], the IC50 in data set [3] (setting [6]) worked out at 40 nM; in data set [4] (setting [7]) it was 70 nM; in data set [5] (setting [8]), 120 nM.
For `Cc1c(C(=O)C(N)=O)c2c(OCC(=O)O)ccnc2n1Cc1ccccc1` [ILY-VII-1, 2-(1-Benzyl-4-yloxyacetic acid-2-methyl-1H-pyrrolo[2,3-b]pyridin-3-yl)-2-oxoacetamide], the results for the IC50 in data set [3] (setting [6]), in data set [4] (setting [7]) and in data set [5] (setting [8]) were 60 nM, 2140 nM and 13700 nM, respectively.
In the case of `CCc1c(CC(N)=O)c2cc(OCCCP(=O)(O)O)ccc2n1Cc1ccccc1` [LY-311727], in data set [1], the half-inhibitory concentration (IC50) entry is recorded as “sub μM range”.
